According to article PMC10974507, “Design, Synthesis, Biological Evaluation and Molecular Docking of Novel F-18-Labeled Focal Adhesion Kinase Inhibitors as Potential Tumor Radiotracers” (Molecules, 2024):

Assays:
FAK = FAK (Homo sapiens, UniProt Q05397); assay: FAK inhibitory assay (homogeneous time-resolved fluorescence kinase assay); type: biochemical; details: in vitro enzyme activity against FAK
Procedure: The inhibitory activities of the 7a–7c against FAK were tested using a homogeneous time-resolved fluorescence methodology-based kinase assay.
(§1) The FAK kinase inhibition test and the partition coefficient test were conducted according to a previously reported method.

[1] = test system: mice bearing S-180 tumors; assay: Biodistribution in S-180 tumor-bearing mice; type: in vivo, Kunming mice; details: for Biodistribution, Tumor (tumor uptake): S-180 tumor; for Biodistribution, Tumor (tumor uptake) / Biodistribution, Blood / Biodistribution, Bone / Biodistribution, Brine / Biodistribution, Heart / Biodistribution, Kidney / Biodistribution, Large intestine / Biodistribution, Liver / Biodistribution, Lung / Biodistribution, Muscle / Biodistribution, Small intestine / Biodistribution, Spleen / Biodistribution, Stomach: mean ± SD, n = 3
Procedure: Kunming mice (female, 18−22 g) and S180 ascites mice were purchased from Beijing Xinglong Animal Technology Co., Ltd., Beijing, China and Beijing Vital River Animal Technology Co., Ltd., Beijing, China, respectively. All the mice-concerned experiments were conducted in strict accordance with the “Guidelines for Humane Treatment of Laboratory Animals”, and the whole process was approved by the Animal Protection Committee of Beijing Normal University (Approval Code: BNUCC-EAW-2023-16; Approval date: 14 June 2023). The specific experimental operations were in accordance with those methods described previously.

[2] = Octanol/water partition coefficient determination; type: physicochemical; details: pH 7.4, read-out: logD7.4
Procedure: The partition coefficients of the radiotracers [^18F]7a and [^18F]7c were determined to evaluate the octanol/water partition properties.
as §1

[3] = 30 min after intravenous injection
[4] = 60 min after intravenous injection
[5] = 120 min after intravenous injection

Sequence of FAK (Q05397 whole entry, species assumed): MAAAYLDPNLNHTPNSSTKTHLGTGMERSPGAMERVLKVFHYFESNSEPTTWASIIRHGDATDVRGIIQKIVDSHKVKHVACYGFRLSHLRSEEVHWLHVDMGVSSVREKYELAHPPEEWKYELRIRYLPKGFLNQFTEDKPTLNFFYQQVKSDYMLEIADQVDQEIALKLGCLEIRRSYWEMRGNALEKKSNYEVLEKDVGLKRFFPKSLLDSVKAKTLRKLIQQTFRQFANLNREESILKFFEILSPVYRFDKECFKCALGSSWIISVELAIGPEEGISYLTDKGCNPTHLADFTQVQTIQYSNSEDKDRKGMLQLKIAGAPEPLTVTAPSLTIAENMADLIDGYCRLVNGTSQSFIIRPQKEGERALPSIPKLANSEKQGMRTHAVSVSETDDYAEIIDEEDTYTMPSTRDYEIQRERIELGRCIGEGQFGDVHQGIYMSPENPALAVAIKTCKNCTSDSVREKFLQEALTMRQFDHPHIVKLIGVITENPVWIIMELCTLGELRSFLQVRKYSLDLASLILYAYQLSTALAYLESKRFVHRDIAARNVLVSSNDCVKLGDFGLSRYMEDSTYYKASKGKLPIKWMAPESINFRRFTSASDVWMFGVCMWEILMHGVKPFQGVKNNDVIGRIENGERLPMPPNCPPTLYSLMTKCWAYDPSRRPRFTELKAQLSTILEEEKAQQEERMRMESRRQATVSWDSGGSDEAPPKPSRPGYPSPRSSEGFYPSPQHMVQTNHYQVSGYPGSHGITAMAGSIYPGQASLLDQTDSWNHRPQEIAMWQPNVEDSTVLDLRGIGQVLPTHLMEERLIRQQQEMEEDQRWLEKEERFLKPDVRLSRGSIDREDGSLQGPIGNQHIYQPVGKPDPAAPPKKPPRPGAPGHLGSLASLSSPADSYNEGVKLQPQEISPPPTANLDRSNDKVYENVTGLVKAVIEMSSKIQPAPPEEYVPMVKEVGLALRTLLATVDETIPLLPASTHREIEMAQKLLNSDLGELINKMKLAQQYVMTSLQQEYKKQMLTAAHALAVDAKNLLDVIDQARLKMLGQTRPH

## CNC(=O)c1cc(N2CCS(=O)(=O)CC2)ccc1Nc1nc(Nc2ccc(OCCOCCOCCF)cc2)ncc1Br [Compound 7a, 2-((5-bromo-2-((4-(2-(2-(2-fluoroethoxy)ethoxy)ethoxy)phenyl)amino)pyrimidin-4-yl)amino)-5-(1,1-dioxidothiomorpholino)-N-methylbenzamide]
FAK
  IC50: 5.59 nM

## CNC(=O)c1cc(N2CCS(=O)(=O)CC2)ccc1Nc1nc(Nc2ccc(OCCOCCOCCF)c(C(=O)N3CCN(C(C)=O)CC3)c2)ncc1Br [Compound 7b, 2-((2-((3-(4-acetylpiperazine-1-carbonyl)-4-(2-(2-(2-fluoroethoxy)ethoxy)ethoxy)phenyl)amino)-5-bromopyrimidin-4-yl)amino)-5-(1,1-dioxidothiomorpholino)-N-methylbenzamide]
FAK
  IC50: 24.6 nM

## CNC(=O)c1cc(N2CCS(=O)(=O)CC2)ccc1Nc1nc(Nc2ccc(OCCOCCOCCF)c(-c3cnn(C)c3)c2)ncc1Br [Compound 7c, 2-((5-bromo-2-((4-(2-(2-(2-fluoroethoxy)ethoxy)ethoxy)-3-(1-methyl-1H-pyrazol-4-yl)phenyl)amino)pyrimidin-4-yl)amino)-5-(1,1-dioxidothiomorpholino)-N-methylbenzamide]
[1]; [3]
  Biodistribution, Tumor (tumor uptake): 6.58 ± 0.46 % ID/g
FAK
  IC50: 1.27 nM

## CNC(=O)c1cc(N2CCN(C(C)=O)CC2)ccc1Nc1nc(Nc2ccc(OCCOCCOCCF)c(C(=O)N3CCOCC3)c2)ncc1Br [Compound 7d, 5-(4-acetylpiperazin-1-yl)-2-((5-bromo-2-((4-(2-(2-(2-fluoroethoxy)ethoxy)ethoxy)-3-(morpholine-4-carbonyl)phenyl)amino)pyrimidin-4-yl)amino)-N-methylbenzamide]
FAK
  IC50: 1970 nM

## CNC(=O)c1cc(N2CCN(C(C)=O)CC2)ccc1Nc1nc(Nc2ccc(OCCOCCOCCF)c(-c3cnn(C)c3)c2)ncc1Br [Compound 7e, 5-(4-acetylpiperazin-1-yl)-2-((5-bromo-2-((4-(2-(2-(2-fluoroethoxy)ethoxy)ethoxy)-3-(1-methyl-1H-pyrazol-4-yl)phenyl)amino)pyrimidin-4-yl)amino)-N-methylbenzamide]
FAK
  IC50: 643 nM

## CNC(=O)c1cc(N2CCOCC2)ccc1Nc1nc(Nc2ccc(OCCOCCOCCF)c(C(=O)N3CCN(C(C)=O)CC3)c2)ncc1Br [Compound 7f]
FAK
  IC50: 10 nM

## CCN1CCN(c2ccc(Nc3nc(Nc4ccc(OCCOCCOCCF)c(-c5cnn(C)c5)c4)ncc3Br)c(C(=O)NC)c2)CC1 [Compound 7g, 2-((5-bromo-2-((4-(2-(2-(2-fluoroethoxy)ethoxy)ethoxy)-3-(1-methyl-1H-pyrazol-4-yl)phenyl)amino)pyrimidin-4-yl)amino)-5-(4-ethylpiperazin-1-yl)-N-methylbenzamide]
FAK
  IC50: 1240 nM

## CNC(=O)c1cc(N2CCS(=O)(=O)CC2)ccc1Nc1nc(Nc2ccc(OCCOCCOCC[18F])cc2)ncc1Br [[^18F]7a]
[1]; [3]
  Tumor/blood ratio: 1.34
  Tumor/muscle ratio: 0.80
  Biodistribution, Blood: 0.98 ± 0.26 % ID/g
  Biodistribution, Bone: 2.32 ± 0.45 % ID/g
  Biodistribution, Brine: 0.57 ± 0.08 % ID/g
  Biodistribution, Heart: 3.05 ± 0.29 % ID/g
  Biodistribution, Kidney: 3.02 ± 1.70 % ID/g
  Biodistribution, Large intestine: 1.46 ± 0.13 % ID/g
  Biodistribution, Liver: 23.49 ± 4.29 % ID/g
  Biodistribution, Lung: 33.55 ± 5.59 % ID/g
  Biodistribution, Muscle: 1.63 ± 0.34 % ID/g
  Biodistribution, Small intestine: 2.95 ± 0.17 % ID/g
  Biodistribution, Spleen: 5.43 ± 1.12 % ID/g
  Biodistribution, Stomach: 0.92 ± 0.28 % ID/g
  Biodistribution, Tumor (tumor uptake): 1.31 ± 0.07 % ID/g
[1]; [4]
  Tumor/blood ratio: 1.45
  Tumor/muscle ratio: 0.56
  Biodistribution, Blood: 0.96 ± 0.10 % ID/g
  Biodistribution, Bone: 2.96 ± 0.43 % ID/g
  Biodistribution, Brine: 1.08 ± 0.13 % ID/g
  Biodistribution, Heart: 1.12 ± 0.03 % ID/g
  Biodistribution, Kidney: 1.47 ± 0.18 % ID/g
  Biodistribution, Large intestine: 1.36 ± 0.36 % ID/g
  Biodistribution, Liver: 23.16 ± 2.65 % ID/g
  Biodistribution, Lung: 28.77 ± 5.72 % ID/g
  Biodistribution, Muscle: 2.50 ± 0.59 % ID/g
  Biodistribution, Small intestine: 1.58 ± 0.35 % ID/g
  Biodistribution, Spleen: 2.53 ± 0.21 % ID/g
  Biodistribution, Stomach: 0.80 ± 0.21 % ID/g
  Biodistribution, Tumor (tumor uptake): 1.39 ± 0.30 % ID/g
[1]; [5]
  Tumor/blood ratio: 0.89
  Tumor/muscle ratio: 4.30
  Biodistribution, Blood: 0.92 ± 0.15 % ID/g
  Biodistribution, Bone: 1.27 ± 0.42 % ID/g
  Biodistribution, Brine: 0.16 ± 0.01 % ID/g
  Biodistribution, Heart: 0.85 ± 0.09 % ID/g
  Biodistribution, Kidney: 1.16 ± 0.06 % ID/g
  Biodistribution, Large intestine: 4.5 ± 1.91 % ID/g
  Biodistribution, Liver: 8.86 ± 3.14 % ID/g
  Biodistribution, Lung: 11.63 ± 1.25 % ID/g
  Biodistribution, Muscle: 0.20 ± 0.03 % ID/g
  Biodistribution, Small intestine: 0.96 ± 0.29 % ID/g
  Biodistribution, Spleen: 5.58 ± 1.06 % ID/g
  Biodistribution, Stomach: 1.16 ± 0.40 % ID/g
  Biodistribution, Tumor (tumor uptake): 0.86 ± 0.34 % ID/g
[2]
  logD: 0.96

## CNC(=O)c1cc(N2CCS(=O)(=O)CC2)ccc1Nc1nc(Nc2ccc(OCCOCCOCC[18F])c(-c3cnn(C)c3)c2)ncc1Br [[^18F]7c]
[1]; [3]
  Tumor/blood ratio: 2.40
  Tumor/muscle ratio: 1.88
  Biodistribution, Blood: 2.74 ± 0.11 % ID/g
  Biodistribution, Bone: 4.12 ± 0.39 % ID/g
  Biodistribution, Brine: 2.81 ± 0.06 % ID/g
  Biodistribution, Heart: 3.46 ± 0.65 % ID/g
  Biodistribution, Kidney: 4.00 ± 0.25 % ID/g
  Biodistribution, Large intestine: 6.18 ± 0.60 % ID/g
  Biodistribution, Liver: 17.64 ± 4.45 % ID/g
  Biodistribution, Lung: 120.47 ± 15.08 % ID/g
  Biodistribution, Muscle: 3.50 ± 0.18 % ID/g
  Biodistribution, Small intestine: 13.02 ± 1.93 % ID/g
  Biodistribution, Spleen: 16.32 ± 1.26 % ID/g
  Biodistribution, Stomach: 5.81 ± 1.02 % ID/g
  Biodistribution, Tumor (tumor uptake): 6.58 ± 0.46 % ID/g
[1]; [4]
  Tumor/blood ratio: 1.71
  Tumor/muscle ratio: 2.09
  Biodistribution, Blood: 3.43 ± 0.04 % ID/g
  Biodistribution, Bone: 4.86 ± 0.30 % ID/g
  Biodistribution, Brine: 3.12 ± 0.66 % ID/g
  Biodistribution, Heart: 2.53 ± 0.56 % ID/g
  Biodistribution, Kidney: 3.82 ± 0.44 % ID/g
  Biodistribution, Large intestine: 4.47 ± 0.44 % ID/g
  Biodistribution, Liver: 19.21 ± 3.81 % ID/g
  Biodistribution, Lung: 128.13 ± 6.74 % ID/g
  Biodistribution, Muscle: 2.80 ± 0.49 % ID/g
  Biodistribution, Small intestine: 5.73 ± 0.82 % ID/g
  Biodistribution, Spleen: 8.48 ± 0.10 % ID/g
  Biodistribution, Stomach: 1.14 ± 0.16 % ID/g
  Biodistribution, Tumor (tumor uptake): 5.85 ± 0.28 % ID/g
[1]; [5]
  Tumor/blood ratio: 1.37
  Tumor/muscle ratio: 2.16
  Biodistribution, Blood: 3.79 ± 0.46 % ID/g
  Biodistribution, Bone: 10.70 ± 1.01 % ID/g
  Biodistribution, Brine: 2.01 ± 0.18 % ID/g
  Biodistribution, Heart: 3.12 ± 0.25 % ID/g
  Biodistribution, Kidney: 3.50 ± 0.37 % ID/g
  Biodistribution, Large intestine: 48.07 ± 9.85 % ID/g
  Biodistribution, Liver: 28.36 ± 5.74 % ID/g
  Biodistribution, Lung: 125.29 ± 16.25 % ID/g
  Biodistribution, Muscle: 2.04 ± 0.12 % ID/g
  Biodistribution, Small intestine: 7.49 ± 1.46 % ID/g
  Biodistribution, Spleen: 24.70 ± 4.31 % ID/g
  Biodistribution, Stomach: 3.32 ± 0.31 % ID/g
  Biodistribution, Tumor (tumor uptake): 5.18 ± 0.68 % ID/g
[2]
  logD: 0.74
